Results as given in patent US20170304388A1, “NEW INDICATION OF CARDIOVASCULAR DRUGS FOR PREPARATION OF CANCER INHIBITION PHARMACEUTICAL COMPOSITION” (LAUNX BIOMEDICAL CO., LTD., priority 2014, published 2017).
Where two headings read alike, the source gives them in different places.

How the values were obtained:
Format in all cases: cell-based
[1] = test system: Hep3B; experiment: Cell viability analysis (WST-1), Hep3B; conditions: Homo sapiens, Hep3B, 72 h, Table 4, repeated experiments, drug 10 μM, read-out: survival rate (viability) of cancer cells, Hep3B
In short: (§1)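 Seeded at 3000 cells per well, then exposed to drug at 10 μM for 72 h. Viability measured by WST-1 reagent (1:10 in medium) for 30–90 min at 37° C, read as OD450, expressed as survival rate.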

[2] = test system: TSGH-8301 (Urinary Bladder Carcinoma); experiment: Cell viability analysis (WST-1), TSGH-8301; conditions: 72 h, Table 4, repeated experiments, drug 10 μM, WST-1, read-out: survival rate (viability) of cancer cells, TSGH-8301
[3] = test system: cancer cell lines; experiment: Growth inhibitory effects on the panel of cancer cell lines; conditions: count of cancer cell lines inhibited; drug 10 μM, 72 hours
[4] = test system: BCC; experiment: Cell viability analysis (WST-1), BCC; conditions: BCC, 72 h, Table 4, repeated experiments, drug 10 μM, read-out: survival rate (viability) of cancer cells, BCC
[5] = test system: A375 (Amelanotic Melanoma); experiment: Cell viability analysis (WST-1), A375; conditions: Homo sapiens, A-375, 72 h
[6] = test system: HCT116 (Colorectal Carcinoma); experiment: Cell viability analysis (WST-1), HCT116; conditions: Homo sapiens, HCT-116, 72 h
[7] = test system: C-33A; experiment: Cell viability analysis (WST-1), C-33A; conditions: Homo sapiens, C-33-A, 72 h, Table 4, repeated experiments, drug 10 μM, read-out: survival rate (viability) of cancer cells, C-33A
In short: as §1

[8] = test system: HepG2 (Hepatocellular Carcinoma); experiment: Cell viability analysis (WST-1), HepG2; conditions: Homo sapiens, HepG2, 72 h
[9] = test system: SAS; experiment: Cell viability analysis (WST-1), SAS; conditions: 72 h, Table 4, repeated experiments, drug 10 μM, read-out: survival rate (viability) of cancer cells, SAS
In short: as §1

[10] = test system: 786-O; experiment: Cell viability analysis (WST-1), 786-O; conditions: Homo sapiens, 786-0, 72 h, Table 4, repeated experiments, drug 10 μM, read-out: survival rate (viability) of cancer cells, 786-O
In short: as §1

[11] = test system: MDA-MB231; experiment: Cell viability analysis (WST-1), MDA-MB231; conditions: Homo sapiens, MDA-MB-231, 72 h, Table 4, repeated experiments, drug 10 μM, read-out: survival rate (viability) of cancer cells, MDA-MB231
[12] = test system: MCF7 (Mammary Gland, Adenocarcinoma); experiment: Cell viability analysis (WST-1), MCF7; conditions: Homo sapiens, MCF7, 72 h
[13] = test system: NIH-OVCAR-3; experiment: Cell viability analysis (WST-1), NIH-OVCAR-3; conditions: Homo sapiens, OVCAR-3, 72 h, Table 4, repeated experiments, drug 10 μM, read-out: survival rate (viability) of cancer cells, NIH-OVCAR-3
In short: as §1

[14] = test system: U2OS; experiment: Cell viability analysis (WST-1), U2OS; conditions: Homo sapiens, U2OS, 72 h, Table 4, repeated experiments, drug 10 μM, read-out: survival rate (viability) of cancer cells, U2OS
In short: as §1

[15] = test system: A549 (Lung Adenocarcinoma); experiment: Cell viability analysis (WST-1), A549; conditions: Homo sapiens, A549, 72 h
[16] = test system: MKN-45 (Gastric Adenocarcinoma); experiment: Cell viability analysis (WST-1), MKN-45; conditions: Homo sapiens, MKN-45, 72 h
[17] = test system: BxPC-3; experiment: Cell viability analysis (WST-1), BxPC-3; conditions: Homo sapiens, BXPC-3, 72 h, Table 4, repeated experiments, drug 10 μM, read-out: survival rate (viability) of cancer cells, BxPC-3
In short: as §1

[18] = test system: PC3 (Prostate Adenocarcinoma); experiment: Cell viability analysis (WST-1), PC3; conditions: 72 h
[19] = test system: AsPC-1; experiment: Cell viability analysis (WST-1), AsPC-1; conditions: Homo sapiens, ASPC1, 72 h, Table 4, repeated experiments, drug 10 μM, read-out: survival rate (viability) of cancer cells, AsPC-1
In short: as §1

Compound: CCC(C)(C)C(=O)O[C@H]1C[C@@H](C)C=C2C=C[C@H](C)[C@H](CC[C@@H]3C[C@@H](O)CC(=O)O3)[C@H]21 [Simvastatin (Zocor), Simvastatin]
- viability at 10 µM [1]: 114%
- viability at 10 µM [2]: 106%
- Numbers of inhibitory effect on cancer cell line [3]: 0
- viability at 10 µM [4]: 57.4%
- viability at 10 µM ([5]; Table 3, drug 10 μM, WST-1, OD450 nm, lower viability = better inhibition, read-out: survival rate (viability) of cancer cells, A375): 114%
- viability at 10 µM ([5]; Table 4, repeated experiments, drug 10 μM, WST-1, read-out: survival rate (viability) of cancer cells, A375): 78.6%
- viability at 10 µM ([6]; Table 3, drug 10 μM, WST-1, OD450 nm, read-out: survival rate (viability) of cancer cells, HCT116 (WT)): 124%
- viability at 10 µM ([6]; Table 4, repeated experiments, drug 10 μM, WST-1, read-out: survival rate (viability) of cancer cells, HCT116): 83.2%
- viability at 10 µM [7]: 112%
- viability at 10 µM ([8]; Table 3, drug 10 μM, WST-1, OD450 nm, read-out: survival rate (viability) of cancer cells, HepG2): 113%
- viability at 10 µM ([8]; Table 4, repeated experiments, drug 10 μM, WST-1, read-out: survival rate (viability) of cancer cells, HepG2): 124%
- viability at 10 µM [9]: 83.9%
- viability at 10 µM [10]: 87.8%
- viability at 10 µM [11]: 71.1%
- viability at 10 µM ([12]; Table 3, drug 10 μM, WST-1, OD450 nm, read-out: survival rate (viability) of cancer cells, MCF7): 81.5%
- viability at 10 µM ([12]; Table 4, repeated experiments, drug 10 μM, WST-1, read-out: survival rate (viability) of cancer cells, MCF-7): 88.8%
- viability at 10 µM [13]: 98.4%
- viability at 10 µM [14]: 65.6%
- viability at 10 µM ([15]; Table 3, drug 10 μM, WST-1, OD450 nm, read-out: survival rate (viability) of cancer cells, A549): 126%
- viability at 10 µM ([15]; Table 4, repeated experiments, drug 10 μM, WST-1, read-out: survival rate (viability) of cancer cells, A549): 110%
- viability at 10 µM ([16]; Table 3, drug 10 μM, WST-1, OD450 nm, read-out: survival rate (viability) of cancer cells, MKN-45): 79.4%
- viability at 10 µM ([16]; Table 4, repeated experiments, drug 10 μM, WST-1, read-out: survival rate (viability) of cancer cells, MKN-45): 92.6%
- viability at 10 µM [17]: 81.8%
- viability at 10 µM ([18]; Table 3, drug 10 μM, WST-1, OD450 nm, read-out: survival rate (viability) of cancer cells, PC3): 91.8%
- viability at 10 µM ([18]; Table 4, repeated experiments, drug 10 μM, WST-1, read-out: survival rate (viability) of cancer cells, PC-3): 92.8%
- viability at 10 µM [19]: 78.2%
